Results taken from ChEMBL document CHEMBL3044672, “N9- and N7-(Chloromethyl Phenymethyl)Chloropurine Derivatives from , '-Dichloroxylenes: Synthesis and Anticancer Activity” (2005).

Key:
Assay type in all cases: functional
[1] = tested on: OVCAR-3; test: Cytotoxicity against Homo sapiens (human) OVCAR3 cells after 48 hr by sulforhodamine B assay; details: OVCAR-3, 48 h
[2] = tested on: OVCAR-8; test: Cytotoxicity against Homo sapiens (human) OVCAR8 cells after 48 hr by sulforhodamine B assay; details: OVCAR-8, 48 h
[3] = tested on: DU-145; test: Cytotoxicity against Homo sapiens (human) DU145 cells after 48 hr by sulforhodamine B assay; details: DU-145, 48 h
[4] = tested on: CAKI-1; test: Cytotoxicity against Homo sapiens (human) Caki1 cells after 48 hr by sulforhodamine B assay; details: CAKI-1, 48 h
[5] = tested on: HT-29; test: Cytotoxicity against Homo sapiens (human) HT-29 cells after 48 hr by sulforhodamine B assay; details: HT-29, 48 h
[6] = tested on: NCI-H460; test: Cytotoxicity against Homo sapiens (human) NCI-H460 cells after 48 hr by sulforhodamine B assay; details: NCI-H460, 48 h
[7] = tested on: T47D; test: Cytotoxicity against Homo sapiens (human) T47D cells after 48 hr by sulforhodamine B assay
[8] = tested on: SK-MEL-5; test: Cytotoxicity against Homo sapiens (human) SK-MEL-5 cells after 48 hr by sulforhodamine B assay; details: SK-MEL-5, 48 h
[9] = tested on: SNB-19; test: Cytotoxicity against Homo sapiens (human) SNB19 cells after 48 hr by sulforhodamine B assay; details: SNB-19, 48 h
[10] = tested on: SF-295; test: Cytotoxicity against Homo sapiens (human) SF295 cells after 48 hr by sulforhodamine B assay; details: SF-295, 48 h
[11] = tested on: EKVX; test: Cytotoxicity against Homo sapiens (human) EKVX cells after 48 hr by sulforhodamine B assay
[12] = tested on: UO-31; test: Cytotoxicity against Homo sapiens (human) UO31 cells after 48 hr by sulforhodamine B assay; details: UO-31, 48 h
[13] = tested on: SF-539; test: Cytotoxicity against Homo sapiens (human) SF539 cells after 48 hr by sulforhodamine B assay; details: SF-539, 48 h
[14] = tested on: SF-268; test: Cytotoxicity against Homo sapiens (human) SF268 cells assessed as cell growth at 10^-4 M after 48 hr by […] assay; details: SF-268, 48 h, read-out: Activity
[15] = tested on: SW-620; test: Cytotoxicity against Homo sapiens (human) SW620 cells after 48 hr by sulforhodamine B assay; details: SW-620, 48 h
[16] = tested on: U-251; test: Cytotoxicity against Homo sapiens (human) U251 cells after 48 hr by sulforhodamine B assay; details: U-251, 48 h
[17] = tested on: M14; test: Cytotoxicity against Homo sapiens (human) M14 cells after 48 hr by sulforhodamine B assay; details: M14, 48 h
[18] = tested on: IGROV-1; test: Cytotoxicity against Homo sapiens (human) IGROV1 cells after 48 hr by sulforhodamine B assay; details: IGROV-1, 48 h
[19] = tested on: SK-MEL-28; test: Cytotoxicity against Homo sapiens (human) SK-MEL-28 cells after 48 hr by sulforhodamine B assay; details: SK-MEL-28, 48 h
[20] = tested on: A498; test: Cytotoxicity against Homo sapiens (human) A498 cells after 48 hr by sulforhodamine B assay; details: A498, 48 h
[21] = tested on: NCI-H226; test: Cytotoxicity against Homo sapiens (human) NCI-H226 cells after 48 hr by sulforhodamine B assay; details: NCI-H226, 48 h
[22] = tested on: SN12C; test: Cytotoxicity against Homo sapiens (human) SN12C cells after 48 hr by sulforhodamine B assay
[23] = tested on: MCF7; test: Cytotoxicity against Homo sapiens (human) MCF7 cells after 48 hr by sulforhodamine B assay; details: MCF7, 48 h
[24] = tested on: BT-549; test: Cytotoxicity against Homo sapiens (human) BT549 cells after 48 hr by sulforhodamine B assay; details: BT-549, 48 h
[25] = tested on: ACHN; test: Cytotoxicity against Homo sapiens (human) ACHN cells after 48 hr by sulforhodamine B assay
[26] = tested on: NCI-H322M; test: Cytotoxicity against Homo sapiens (human) NCI-H322M cells after 48 hr by sulforhodamine B assay
[27] = tested on: SK-MEL-2; test: Cytotoxicity against Homo sapiens (human) SK-MEL-2 cells after 48 hr by sulforhodamine B assay; details: SK-MEL-2, 48 h
[28] = tested on: HOP-92; test: Cytotoxicity against Homo sapiens (human) HOP92 cells after 48 hr by sulforhodamine B assay; details: HOP-92, 48 h
[29] = tested on: 786-0; test: Cytotoxicity against Homo sapiens (human) 786-0 cells after 48 hr by sulforhodamine B assay; details: 786-0, 48 h
[30] = tested on: MDA-MB-435; test: Cytotoxicity against Homo sapiens (human) MDA-MB-435 cells after 48 hr by sulforhodamine B assay; details: MDA-MB-435, 48 h
[31] = tested on: PC-3; test: Cytotoxicity against Homo sapiens (human) PC3 cells after 48 hr by sulforhodamine B assay; details: PC-3, 48 h
[32] = tested on: OVCAR-5; test: Cytotoxicity against Homo sapiens (human) OVCAR5 cells after 48 hr by sulforhodamine B assay; details: OVCAR-5, 48 h
[33] = read-out: LC50 (the source's name)

ClCc1cccc(Cn2cnc3c(Cl)nc(Cl)nc32)c1
GI50 [1]: 1.58 µM
LC50 [1]: 6.45 µM
TGI [1]: 3.23 µM
GI50 [2]: 1.82 µM
LC50 (concentration killing 50% of cells) [2]: 67.6 µM
TGI [2]: 3.54 µM
GI50 [3]: 1.58 µM
LC50 [3]: 5.62 µM
TGI [3]: 2.95 µM
GI50 [4]: 2.23 µM
TGI [4]: 5.88 µM
CC50 [4, 33]: 22.9 µM
GI50 [5]: 2.39 µM
TGI [5]: > 100 µM
CC50 [5, 33]: > 100 µM
GI50 [6]: 2.34 µM
TGI [6]: 6.31 µM
CC50 [6, 33]: > 100 µM
GI50 [7]: 1.95 µM
LC50 [7]: > 100 µM
TGI [7]: 4.46 µM
GI50 [8]: 1.58 µM
LC50 [8]: 5.88 µM
TGI [8]: 3.02 µM
GI50 [9]: 1.95 µM
LC50 [9]: 8.92 µM
TGI [9]: 4.16 µM
GI50 [10]: 4.36 µM
TGI [10]: 17 µM
CC50 [10, 33]: 45.7 µM
GI50 [11]: 1.73 µM
TGI [11]: 2.31 µM
CC50 [11, 33]: 6.45 µM
GI50 [12]: 1.58 µM
LC50 (concentration causing 50% net cell kill) [12]: 5.88 µM
TGI [12]: 3.09 µM
GI50 [13]: 2.18 µM
LC50 (concentration killing 50% of cells) [13]: 40.7 µM
TGI [13]: 14.1 µM
growth at 100 µM [14]: 0%
GI50 [15]: 1.58 µM
TGI [15]: 3.46 µM
CC50 [15, 33]: 7.76 µM
GI50 [16]: 1.69 µM
LC50 (concentration killing 50% of cells) [16]: 5.62 µM
TGI [16]: 3.09 µM
GI50 [17]: 1.77 µM
LC50 [17]: 6.45 µM
TGI [17]: 3.38 µM
GI50 [18]: 2.29 µM
LC50 [18]: 19.9 µM
TGI [18]: 5.12 µM
GI50 [19]: 2.34 µM
LC50 (concentration killing 50% of cells) [19]: > 100 µM
TGI [19]: 5.37 µM
GI50 [20]: 2.39 µM
LC50 (lethal concentration, 50% cell kill) [20]: 27.5 µM
TGI [20]: 6.6 µM
GI50 [21]: 3.23 µM
TGI [21]: 10 µM
CC50 [21, 33]: 40.7 µM
GI50 [22]: 2.13 µM
LC50 (50% lethal concentration) [22]: 11.8 µM
TGI [22]: 4.67 µM
GI50 [23]: 2.04 µM
LC50 (concentration killing 50% of cells) [23]: > 100 µM
TGI [23]: 6.45 µM
GI50 [24]: 1.69 µM
LC50 (50% lethal concentration) [24]: 6.16 µM
TGI [24]: 3.23 µM
GI50 [25]: 1.9 µM
TGI [25]: 3.71 µM
CC50 [25, 33]: 7.24 µM
GI50 [26]: 2.29 µM
TGI [26]: 5.12 µM
CC50 [26, 33]: 15.8 µM
GI50 [27]: 1.99 µM
LC50 (concentration killing 50% of cells) [27]: 10 µM
TGI [27]: 4.46 µM
GI50 [28]: 1.82 µM
TGI [28]: 3.63 µM
CC50 [28, 33]: 7.08 µM
GI50 [29]: 12.3 µM
LC50 [29]: 57.5 µM
TGI [29]: 26.9 µM
GI50 [30]: 1.69 µM
LC50 [30]: 6.31 µM
TGI [30]: 3.23 µM
GI50 [31]: 2.39 µM
LC50 (concentration causing 50% cell kill) [31]: 55 µM
TGI [31]: 5.01 µM
GI50 [32]: 6.45 µM
TGI [32]: 20.4 µM
CC50 [32, 33]: 47.9 µM
